What all share (test): in vitro antibacterial activity, minimal inhibitory concentration
What all share (assay type): cell-based

One test deals with E. coli Vogel. The settings on record: Escherichia coli. An excerpt:
(§1) The compounds of the invention are new chemical compounds that are used as pharmacological agents and especially as broad spectrum antibacterial agents. They are active in vitro against strains of both gram-positive and gram-negative bacteria.
(§2) Minimal Inhibitory Concentration (μg/ml)

The subject of a further test is Serr. marces.
Description: as §1, §2

The subject of a further test is Strep. fec.
Description: as §1, §2

For the next test, the system named is Klebs. pneu.
Description: as §1, §2

In the next test the test system is Prot. vulg.
Description: as §1, §2

In the next test the test system is Pseudomonas BRK 12-4-4. To be noted: BRK1244; Pseudomonas BRK 12-4-4, in vitro.
Description: as §1, §2

The next test relates to Staph. aureus UC-76. The settings on record: Staphylococcus aureus, UC76; Staph. aureus UC-76, in vitro.
Description: as §1, §2

The next test relates to Staph. aureus S18733. The settings on record: Staphylococcus aureus.
Description: as §1, §2

For the next test, the system named is Pseudomonas UI 18. To be noted: UI18; Pseudomonas UI 18, in vitro.
Description: as §1, §2

The next test has as its system E. coli Brig. To be noted: Escherichia coli.
Description: as §1, §2

The test system of the next test is Pseudomonas #28. The settings on record: Pseudomonas #28, in vitro; read-out: Minimal Inhibitory Concentration.
Description: as §1, §2

Another test relates to Entero. cloacae. To be noted: Enterobacter cloacae.
Description: as §1, §2

In brackets after ≈: the same amount, converted by molar mass. Where only a bound is given, the exact number is not on record here.

As for `CC(=O)N[C@@H](C)C(=O)Nc1ccc(-c2ncc(C(=O)N[C@@H](C(=O)NC3C(=O)N4C(C(=O)O)=C(CSc5nnnn5CC(=O)O)CSC34)c3ccccc3)c(O)n2)cc1` (stereo partly drawn) [Example 33], the MIC in the test on E. coli Vogel was 1.6 µg/mL (≈ 1.92 µM); in the test on Serr. marces. it was greater than 50 µg/mL; in the test with Strep. fec., greater than 50 µg/mL; with Klebs. pneu., 6.3 µg/mL (≈ 7.57 µM); against Prot. vulg. it was 3.1 µg/mL (≈ 3.73 µM); against Pseudomonas BRK 12-4-4 it was 12.5 µg/mL (≈ 15 µM). The MIC against Staph. aureus UC-76 amounted to 6.3 µg/mL (≈ 7.57 µM); in the test with Staph. aureus S18733 it was 25 µg/mL (≈ 30.1 µM); against Pseudomonas UI 18, 12.5 µg/mL (≈ 15 µM); against E. coli Brig, 12.5 µg/mL (≈ 15 µM); in the test on Pseudomonas #28 it was 6.3 µg/mL (≈ 7.57 µM); in the test on Entero. cloacae it was 6.3 µg/mL (≈ 7.57 µM).
As for `CC(=O)NC(C)(C)C(=O)Nc1ccc(-c2ncc(C(=O)N[C@@H](C(=O)NC3C(=O)N4C(C(=O)O)=C(CSc5nnnn5C)CSC34)c3ccccc3)c(O)n2)cc1` (stereo partly drawn) [Example 28], the MIC against E. coli Vogel came out at 3.1 µg/mL (≈ 3.87 µM); with Serr. marces., 50 µg/mL (≈ 62.4 µM); with Strep. fec., 50 µg/mL (≈ 62.4 µM); in the test with Klebs. pneu., 6.3 µg/mL (≈ 7.86 µM); against Prot. vulg., 25 µg/mL (≈ 31.2 µM); in the test on Pseudomonas BRK 12-4-4 it was 6.3 µg/mL (≈ 7.86 µM). Moreover, the MIC with Staph. aureus UC-76 is 3.1 µg/mL (≈ 3.87 µM); in the test with Staph. aureus S18733 it was 6.3 µg/mL (≈ 7.86 µM); against Pseudomonas UI 18, 6.3 µg/mL (≈ 7.86 µM); against E. coli Brig it was 12.5 µg/mL (≈ 15.6 µM); in the test on Pseudomonas #28 it was 3.1 µg/mL (≈ 3.87 µM); in the test with Entero. cloacae, 6.3 µg/mL (≈ 7.86 µM).
Take `C[C@@H](N)C(=O)Nc1ccc(-c2ncc(C(=O)N[C@@H](C(=O)NC3C(=O)N4C(C(=O)O)=C(CSc5nnnn5CC(=O)O)CSC34)c3ccccc3)c(O)n2)cc1` (stereo partly drawn) [Example 38, N-[2-[4-(D-Alanylamino)phenyl]-4-hydroxy-5-pyrimidinylcarbonyl]-7-[D-2-amino-2-phenylacetamido]-3-[[(1-carboxymethyl-1H-tetrazol-5-yl)thio]-methyl]-3-cephem-4-carboxylic acid]: the MIC against E. coli Vogel was 0.8 µg/mL (≈ 1.01 µM); against Serr. marces., 25 µg/mL (≈ 31.7 µM); in the test with Strep. fec. it was greater than 50 µg/mL; against Klebs. pneu., 6.3 µg/mL (≈ 7.98 µM); with Prot. vulg., 0.8 µg/mL (≈ 1.01 µM); against Pseudomonas BRK 12-4-4, 3.1 µg/mL (≈ 3.92 µM). The MIC in the test on Staph. aureus UC-76 stood at 6.3 µg/mL (≈ 7.98 µM); in the test with Staph. aureus S18733, 12.5 µg/mL (≈ 15.8 µM); against Pseudomonas UI 18 it was 3.1 µg/mL (≈ 3.92 µM); in the test with E. coli Brig, 6.3 µg/mL (≈ 7.98 µM); in the test on Pseudomonas #28, 3.1 µg/mL (≈ 3.92 µM); against Entero. cloacae, 6.3 µg/mL (≈ 7.98 µM).
`CC(=O)NCCCCC(NC(C)=O)C(=O)Nc1ccc(-c2ncc(C(=O)N[C@@H](C(=O)N[C@@H]3C(=O)N4C(C(=O)O)=C(COC(C)=O)CS[C@H]34)c3ccccc3)c(O)n2)cc1` (mixture of isomers) [Example 12, N-[2-[4-(N^α,N^ω -Diacetyl-DL-lysylamino)phenyl]-4-hydroxy-5-pyrimidinylcarbonyl]-7-[D-2-amino-2-phenylacetamido]-3-acetoxymethyl-3-cephem-4carboxylic acid]: the MIC is 6.3 µg/mL in the test on E. coli Vogel; greater than 50 µg/mL in the test with Serr. marces.; 50 µg/mL against Strep. fec.; 25 µg/mL in the test on Klebs. pneu.; 50 µg/mL with Prot. vulg.; 12.5 µg/mL against Pseudomonas BRK 12-4-4. Moreover, the MIC in the test with Staph. aureus UC-76 is 1.6 µg/mL; against Staph. aureus S18733, 6.3 µg/mL; against Pseudomonas UI 18, 6.3 µg/mL; against E. coli Brig, 50 µg/mL; in the test on Pseudomonas #28 it was 6.3 µg/mL; against Entero. cloacae, 25 µg/mL.

Source of the values: patent US4311699A, “Aminoacid derivatives of cephalosporin compounds” (priority 1980, dated 1982).
